# Patent US20060074046A1, “Oral administration of decitabine salt” (priority 2004, published 2006)
# Counter-ions that a name gives are not always drawn. Like-named read-outs stand apart in the source and are kept apart here.
# Legend:
# [1] = Hygroscopicity, weight gain in 1 week at relative humidity; format: physicochemical; settings: solid state
# [2] = 0.05 M phosphate buffer; for Potency Found (%) At pH 2.5 / Potency Found (%) At pH 7.0: 0.5 mg/mL, ambient
# physchem = settings: water, thermodynamic from solid, Total Solubility
# [3] = 1 min
SMILES,Hygroscopicity-% weight gain in 1 week ([1]; 56% RH),Hygroscopicity-% weight gain in 1 week ([1]; 98% RH),Potency Found (%) At pH 2.5 ([2]; t = 0.5 hr),Potency Found (%) At pH 7.0 ([2]; t = 0.5 hr),Potency Found (%) At pH 7.0 ([2]; t = 24 hr),solubility at 1 min (physchem),Total Solubility [3],solution stability compared with the free base ([2]; pH 7.0 and 2.5),Potency Found (%) At pH 2.5 ([2]; t = 24 hr),solubility at 1 min (physchem; decitabine or azacitidine free base equivalents)
"Nc1ncn([C@@H]2O[C@H](CO)[C@@H](O)[C@H]2O)c(=O)n1 [Compound 2, 5-azacytidine, reference compound]",1.74%,5.61%,73.62%,86.74%,79.43%,14 mg/mL,14 mg/mL,,,
"Nc1ncn([C@@H]2O[C@H](CO)C(O)C2O)c(=O)n1 (some centres unmarked) [Compound 19, azacitidine mesylate]",6.05%,38.11%,64.56%,77.47%,65.79%,205 mg/mL,205 mg/mL,slightly less than the free azacitidine base,49.94%,137 mg/mL
